According to patent publication US4160028A, “Substituted 2-cyclopropyl-chromones and pharmaceutical compositions and use thereof” (Carlo Erba S.p.A., priority 1977, dated 1979):

Experiment: seven days indicative acute toxicity after oral administration
Conditions: rat, in vivo, rats
Protocol: Seven days indicative acute toxicity after oral administration was assessed for the compounds of the invention. For example, for the compound identified by the code K 13262, a LD50 >400 mg/kg in rats was obtained.

SMILES: CCCc1c([C@@H]2C[C@H]2c2ccccc2)oc2ccc(C(=O)O)cc2c1=O (relative stereo) [K 13262, trans 6-carboxy-3-propyl-2-(2-phenyl-cyclopropyl)-chromone]
- LD50 at 168 h: > 400 mg/kg
